{
  "source": "paper PMC7365463",
  "about": "“Oxfendazole mediates macrofilaricidal efficacy against the filarial nematode Litomosoides sigmodontis in vivo and inhibits Onchocerca spec. motility in vitro” (PLoS Neglected Tropical Diseases, 2020)",
  "key": {"[1]": {"tested_on": "Onchocerca gutturosa adult male worms", "assay": "O. gutturosa adult male worm 5-day motility assay"}, "[2]": {"tested_on": "Onchocerca gutturosa adult male worms", "assay": "O. gutturosa adult worm MTT/formazan viability assay", "settings": "120 h"}, "[3]": {"tested_on": "Onchocerca lienalis microfilariae", "assay": "O. lienalis microfilariae 5-day motility assay", "settings": "120 h"}, "[4]": {"tested_on": "Brugia pahangi", "settings": "cited from earlier work"}, "[5]": {"tested_on": "Brugia pahangi", "settings": "100L3 (SC), cats, SC 100-400mg/kg x1, patent phase, necropsy 46-51 days p.t.; ref Denham 1979 (Ref. 4); cited from earlier work"}, "[6]": {"tested_on": "Brugia malayi", "set-up": "method as in Maeda 1988 (Ref. 14)", "settings": "150-200L3 (SC), jird, IP 20mg/kg 5 cons. days, 9 months p.i., necropsy 5 weeks p.t.; ref Maeda 1988 (Ref. 14); cited from earlier work"}, "[7]": {"tested_on": "Litomosoides sigmodontis", "set-up": "method as in Reddy 1983 (Ref. 15)", "settings": "L3 (mite), Mastomys natalensis, patent phase, necropsy 43 days p.t., ref Reddy 1983 (Ref. 15), cited from earlier work"}, "[8]": {"tested_on": "Brugia pahangi", "set-up": "method as in Reddy 1983 (Ref. 15)", "settings": "L3 (SC), Mastomys natalensis, patent phase, necropsy 43 days p.t., ref Reddy 1983 (Ref. 15), cited from earlier work"}, "[9]": {"tested_on": "Litomosoides sigmodontis", "assay": "Patent L. sigmodontis infection in jirds (adult worms, microfilaremia, embryogenesis)", "settings": "jirds, SC 2 mg/kg QD for 5 days"}},
  "note": "Where two headings read alike, the source gives them in different places.",
  "data": [
    {"compound": "COC(=O)Nc1nc2cc(C(=O)c3ccc(F)cc3)ccc2[nH]1", "note": "[flubendazole]", "values": [
      {"measurement": "Motility Reduction (%)", "setting": "[1]; 1.25 x 10^-5 M, 24 h", "value": 10, "unit": "%"},
      {"measurement": "Motility Reduction (%)", "setting": "[1]; 1.25 x 10^-5 M, 48 h", "value": 12, "unit": "%"},
      {"measurement": "Motility Reduction (%)", "setting": "[1]; 1.25 x 10^-5 M, 72 h", "value": 33, "unit": "%"},
      {"measurement": "Motility Reduction (%)", "setting": "[1]; 1.25 x 10^-5 M, 96 h", "value": 44, "unit": "%"},
      {"measurement": "Motility Reduction (%)", "setting": "[1]; 1.25 x 10^-5 M, 120 h", "value": 51, "unit": "%"},
      {"measurement": "Motility Reduction (%)", "setting": "[1]; 3.1 x 10^-6 M, 24 h", "value": 4, "unit": "%"},
      {"measurement": "Motility Reduction (%)", "setting": "[1]; 3.1 x 10^-6 M, 48 h", "value": 5, "unit": "%"},
      {"measurement": "Motility Reduction (%)", "setting": "[1]; 3.1 x 10^-6 M, 72 h", "value": 16, "unit": "%"},
      {"measurement": "Motility Reduction (%)", "setting": "[1]; 3.1 x 10^-6 M, 96 h", "value": 38, "unit": "%"},
      {"measurement": "Motility Reduction (%)", "setting": "[1]; 3.1 x 10^-6 M, 120 h", "value": 40, "unit": "%"},
      {"measurement": "Motility Reduction (%)", "setting": "[1]; 5.0 x 10^-5 M, 24 h", "value": 23, "unit": "%"},
      {"measurement": "Motility Reduction (%)", "setting": "[1]; 5.0 x 10^-5 M, 48 h", "value": 22, "unit": "%"},
      {"measurement": "Motility Reduction (%)", "setting": "[1]; 5.0 x 10^-5 M, 72 h", "value": 36, "unit": "%"},
      {"measurement": "Motility Reduction (%)", "setting": "[1]; 5.0 x 10^-5 M, 96 h", "value": 38, "unit": "%"},
      {"measurement": "Motility Reduction (%)", "setting": "[1]; 5.0 x 10^-5 M, 120 h", "value": 54, "unit": "%"},
      {"measurement": "Motility Reduction (%)", "setting": "[1]; 7.8 x 10^-7 M, 24 h", "value": 6, "unit": "%"},
      {"measurement": "Motility Reduction (%)", "setting": "[1]; 7.8 x 10^-7 M, 48 h", "value": 9, "unit": "%"},
      {"measurement": "Motility Reduction (%)", "setting": "[1]; 7.8 x 10^-7 M, 72 h", "value": 13, "unit": "%"},
      {"measurement": "Motility Reduction (%)", "setting": "[1]; 7.8 x 10^-7 M, 96 h", "value": 33, "unit": "%"},
      {"measurement": "Motility Reduction (%)", "setting": "[1]; 7.8 x 10^-7 M, 120 h", "value": 26, "unit": "%"},
      {"measurement": "MTT Reduction (%)", "setting": "[2]; 1.25 x 10^-5 M", "value": 2, "unit": "%"},
      {"measurement": "MTT Reduction (%)", "setting": "[2]; 3.1 x 10^-6 M", "value": 3, "unit": "%"},
      {"measurement": "MTT Reduction (%)", "setting": "[2]; 5.0 x 10^-5 M", "value": 20, "unit": "%"},
      {"measurement": "MTT Reduction (%)", "setting": "[2]; 7.8 x 10^-7 M", "value": 3, "unit": "%"},
      {"measurement": "activity against microfilariae compared to oxfendazole", "setting": "[3]", "value": "even less active"},
      {"measurement": "Reduction of worm burden", "setting": "[4]; 15Ad (IP), jirds, SC 0.7mg/kg 5 cons. days, ref Denham 1979 (Ref. 4)", "value": 40, "unit": "%"},
      {"measurement": "Reduction of worm burden", "setting": "[4]; 15Ad (IP), jirds, SC 3.1mg/kg x1, ref Denham 1979 (Ref. 4)", "value": 23, "unit": "%"},
      {"measurement": "Reduction of worm burden", "setting": "[4]; 15Ad (IP), jirds, SC 5mg/kg 5 cons. days, 4 days p.i., necropsy 5 weeks p.t., ref Surin 1990 (Ref. 11)", "value": 100, "unit": "%"},
      {"measurement": "Reduction of worm burden", "setting": "[4]; 15Ad (IP), jirds, SC 6.3-12.5 mg/kg x1, ref Denham 1979 (Ref. 4)", "value": "70-80%"},
      {"measurement": "Reduction of worm burden", "setting": "[4]; 15Ad (IP), jirds, SC 10-50-100mg/ml 5 cons. days, ref Denham 1979 (Ref. 4)", "value": "96-100%"},
      {"measurement": "Reduction of worm burden", "setting": "[4]; 15Ad (IP), jirds, SC 25-200mg/kg x1, ref Denham 1979 (Ref. 4)", "value": ">98", "unit": "%"},
      {"measurement": "Reduction of worm burden", "setting": "[4]; 50L3 (IP), jirds, SC 5mg/kg 5 cons. days, 70 days p.i., necropsy 5 weeks p.t., ref Surin 1990 (Ref. 11)", "value": 98.5, "unit": "%"},
      {"measurement": "Reduction of worm burden", "setting": "[4]; 50L3 (IP), jirds, SC 25mg/kg 5 cons. days, 70 days p.i., necropsy 5 weeks p.t., ref Surin 1990 (Ref. 11)", "value": 100, "unit": "%"},
      {"measurement": "Reduction of worm burden", "setting": "[4]; 50L3 (IP), jirds, SC 25mg/kg x1, prepatent phase, necropsy 3-9 days p.t., ref Denham 1979 (Ref. 4)", "value": "no reduction"},
      {"measurement": "Reduction of worm burden", "setting": "[4]; 50L3 (IP), jirds, SC 25mg/kg x1, prepatent phase, necropsy 12-24 days p.t., ref Denham 1979 (Ref. 4)", "value": 80, "unit": "%"},
      {"measurement": "Reduction of worm burden", "setting": "[4]; 50L3 (IP), jirds, SC 25mg/kg x1, prepatent phase, necropsy 27-36 days p.t., ref Denham 1979 (Ref. 4)", "value": 100, "unit": "%"},
      {"measurement": "Reduction of worm burden", "setting": "[4]; prophylactic, 15Ad (IP), jirds, SC 100mg/kg x1, 2,3,4,5 weeks bef. i., necropsy 35 days pi, ref Denham 1980 (Ref. 1)", "value": 100, "unit": "%"},
      {"measurement": "Reduction of worm burden", "setting": "[4]; prophylactic, 15Ad (IP), jirds, SC 100mg/kg x1, 6,9,12 weeks bef. i., necropsy 35 days pi, ref Denham 1980 (Ref. 1)", "value": "92-100%"},
      {"measurement": "Reduction of worm burden", "setting": "[4]; prophylactic, 15Ad (IP), jirds, SC 100mg/kg x1, 24 weeks bef. i., necropsy 35 days pi, ref Denham 1980 (Ref. 1)", "value": 9, "unit": "%"},
      {"measurement": "Reduction of worm burden", "setting": "[4]; prophylactic, 15Ad (IP), jirds, SC 100mg/kg x1, 2 days bef. i., necropsy 35 days pi, ref Denham 1980 (Ref. 1)", "value": 100, "unit": "%"},
      {"measurement": "Reduction of worm burden", "setting": "[4]; prophylactic, 50L3, jirds, SC 25mg/kg x1, 137 days bef. i., necropsy 9-10 weeks p.t., ref Chusattayanond 1984 (Ref. 2)", "value": 8, "unit": "%"},
      {"measurement": "Reduction of worm burden", "setting": "[5]", "value": 100, "unit": "%"},
      {"measurement": "Reduction of worm burden", "setting": "[6]", "value": 100, "unit": "%"},
      {"measurement": "Reduction of worm burden", "setting": "[7]; SC 100mg/kg 5 cons. days", "value": 100, "unit": "%"},
      {"measurement": "Reduction of worm burden", "setting": "[7]; per os 150mg/kg 5 cons. days", "value": 0, "unit": "%"},
      {"measurement": "Reduction of worm burden", "setting": "[8]; SC 100mg/kg 5 cons. days", "value": 100, "unit": "%"},
      {"measurement": "Reduction of worm burden", "setting": "[8]; per os 150mg/kg 5 cons. days", "value": 20, "unit": "%"},
      {"measurement": "adult worms at necropsy", "setting": "[9]; necropsy 16 weeks post-treatment", "value": "no adult worms were recovered"},
      {"measurement": "clearance of microfilariae from peripheral blood", "setting": "[9]; week 4 after treatment start", "value": "all microfilariae were cleared"}
    ]}
  ]
}
